Target: T1, AC1 (Homo sapiens, UniProt Q08828)
T1 construct: expressed in transfected cells
Experiment: Inhibition of A23187-mediated (Ca2+-stimulated) cAMP accumulation in HEK cells stably expressing AC1
Assay type: cell-based
Conditions: for inhibition at 4 µM / inhibition at 40 µM: HEK293, read-out: AC1 Inhibition Percentage; for inhibition at 4 µM: 4 μM compound; for inhibition at 40 µM: 40 μM compound; for IC50: HEK cells stably expressing AC1, inhibitors 30 min, then 3 μM A23187 with IBMX, average and S.E.M. of at least three independent experiments, read-out: IC50 for inhibition of the A23187-mediated cAMP response of AC1
Protocol: HEK cells stably expressing AC1 were treated with inhibitors for 30 min, and subsequently incubated with 3 μM A23187 in the presence of 2 mM IBMX. Data represent the average and S.E.M. of at least three independent experiments.
A23187 is a Ca2+ ionophore, which promotes Ca2+ binding to calmodulin in the cells and, subsequent stimulation of AC1.
HEK (human embryonic kidney) cells stably expressing human AC1, were cultured in Dubelcco's Modified Eagle Medium (Life Technologies, Grand Island, N.Y.) supplemented with 5% bovine calf serum (Hyclone, Logan, Utah), 5% fetal clone I (Hyclone, Logan, Utah), Antibiotic-Antimycotic (Life Technologies, Grand Island, N.Y.), and G418 (Invivogen, San Diego, Calif.). The cells were grown to confluency in 15 cm disses, harvested using Cell Dissociation Buffer (Life Technologies, Grand Island, N.Y.), and resuspended in 4 ml of fetal bovine serum (Hyclone, Logan, Utah) containing 10% dimethyl sulfoxide (Sigma-Aldrich, St. Louis, Mo.). 1 ml of cell suspension was added to cryovials that were incubated overnight at −80° C. in a CoolCell device (BioCision, Larkspur, Calif.) for cryopreservation. On the following day, cryovials were stored in liquid N2 until the assay day.
Cryopreserved HEK-AC1 cells were thawed in a 37° C. water-bath, resuspended in 10 ml optiMEM (Life Technologies, Grand Island, N.Y.) and centrifuged at 500×g for 5 min. The cells were resuspended in 10 ml optiMEM and the centrifugation step was repeated. Cells were then resuspended in 1 ml optiMEM and counted using a Countess automated cell counter (Life Technologies, Grand Island, N.Y.). Cells were added to a white, flat bottom, low-volume, tissue culture-treated 384 well plate (PerkinElmer, Shelton, Conn.) at a final density of 2500 cells/well. The plate was centrifuged for 1 min at 100×g and incubated in a 37° C. humidified incubator for 1 h. […] Following this incubation A23187 (Sigma-Aldrich, St. Louis, Mo.) (3 μM final concentration) containing 3-isobutyl-1-methylxanthine (Sigma-Aldrich, St. Louis, Mo.) (0.5 mM final concentration) was added. The plate was centrifuged for 1 min at 100×g and incubated at room temperature for 1 h. Cyclic AMP accumulation was measured using Cisbio's dynamic 2 kit (Cisbio Bioassays, Bedford, Mass.) according to the manufacturer's instructions. Plates were analyzed for fluorescent emissions at 620 nm and 665 nm using 330 nm as the excitation wavelength in a Cytation 3 Cell Imaging Multi-Mode Reader (Biotek, Winooski, Vt.), and ratiometric analysis was carried out by dividing the 665 nm emissions by the 620 nm emissions to extrapolate the cAMP concentrations from a cAMP standard curve. The data represent the average of at least three independent experiments ran in duplicate.

T1 sequence (Q08828 whole entry): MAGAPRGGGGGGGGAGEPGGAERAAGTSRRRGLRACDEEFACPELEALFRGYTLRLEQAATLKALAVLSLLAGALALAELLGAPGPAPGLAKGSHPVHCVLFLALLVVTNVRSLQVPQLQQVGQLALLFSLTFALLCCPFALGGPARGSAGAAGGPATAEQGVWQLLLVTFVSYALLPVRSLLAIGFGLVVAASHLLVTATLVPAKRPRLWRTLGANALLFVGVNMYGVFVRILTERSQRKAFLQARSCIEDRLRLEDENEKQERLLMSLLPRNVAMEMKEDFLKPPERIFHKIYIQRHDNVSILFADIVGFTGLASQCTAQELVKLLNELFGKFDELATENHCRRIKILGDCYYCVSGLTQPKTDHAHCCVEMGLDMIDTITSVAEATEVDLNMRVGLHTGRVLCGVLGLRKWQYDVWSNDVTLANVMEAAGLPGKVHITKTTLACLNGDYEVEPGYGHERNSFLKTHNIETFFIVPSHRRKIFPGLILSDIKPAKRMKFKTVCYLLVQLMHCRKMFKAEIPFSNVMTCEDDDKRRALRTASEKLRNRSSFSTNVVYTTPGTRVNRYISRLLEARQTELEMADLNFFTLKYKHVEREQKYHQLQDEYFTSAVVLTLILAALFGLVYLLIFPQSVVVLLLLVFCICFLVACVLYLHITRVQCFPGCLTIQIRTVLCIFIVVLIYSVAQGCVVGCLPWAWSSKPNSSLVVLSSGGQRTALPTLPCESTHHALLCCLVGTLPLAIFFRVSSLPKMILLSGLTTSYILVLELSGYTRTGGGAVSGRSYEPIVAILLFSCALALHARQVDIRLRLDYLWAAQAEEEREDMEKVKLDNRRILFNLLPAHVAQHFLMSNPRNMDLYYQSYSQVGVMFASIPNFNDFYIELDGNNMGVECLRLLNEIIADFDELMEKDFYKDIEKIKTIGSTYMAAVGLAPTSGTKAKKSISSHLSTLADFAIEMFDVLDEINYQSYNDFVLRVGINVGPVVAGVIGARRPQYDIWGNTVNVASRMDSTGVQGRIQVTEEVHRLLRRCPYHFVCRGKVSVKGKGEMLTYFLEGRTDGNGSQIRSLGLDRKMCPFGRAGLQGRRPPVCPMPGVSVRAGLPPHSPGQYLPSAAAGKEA

Row | SMILES | inhibition at 4 µM | inhibition at 40 µM | IC50
1 | CCOC(=O)c1ccc(/C=C/CN(CCCC(=O)OC)Cc2ccc(F)cc2)cc1 [Compound 7gd, (E)-ethyl 4-(3-((4-fluorobenzyl)(4-methoxy-4-oxobutyl)amino)prop-1-enyl)benzoate] | -24% | 71% | –
2 | Fc1ccc(CN(C/C=C/c2ccccc2)CCc2c[nH]c3ccccc23)cc1 [Compound 7bb, (E)-N-(2-(1H-indol-3-yl)ethyl)-N-(4-fluorobenzyl)-3-phenylprop-2-en-1-amine] | 31% | 96% | –
3 | Brc1ccc(/C=C/CN(CCc2c[nH]c3ccccc23)Cc2ccccc2)cc1 [Compound 7ag, (E)-N-(2-(1H-indol-3-yl)ethyl)-N-benzyl-3-(4-bromophenyl)prop-2-en-1-amine] | 57% | 96% | 6.91 µM
4 | O=[N+]([O-])c1ccc(CN(C/C=C/c2ccccc2)CCc2c[nH]c3ccccc23)cc1 [Compound 7bc, (E)-N-(2-(1H-indol-3-yl)ethyl)-N-(4-nitrobenzyl)-3-phenylprop-2-en-1-amine] | 29% | 88% | –
5 | COc1ccc2c(c1)C(c1ccccc1)CN(C/C=C/c1ccc(C)cc1)CC2 (centres unmarked) [Compound 7jb, (E)-8-methoxy-1-phenyl-3-(3-p-tolylallyl)-2,3,4,5-tetrahydro-1H-benzo[d]azepine] | 43% | 90% | 16.7 µM
6 | COc1ccc(/C=C/CN(C)Cc2cccc3ccccc23)cc1OC [Compound 7fk, (E)-3-(3,4-dimethoxyphenyl)-N-methyl-N-(naphthalen-1-ylmethyl)prop-2-en-1-amine] | -14% | 33% | –
7 | C(=C\c1ccccc1)/CN(CCc1c[nH]c2ccccc12)Cc1cccc2ccccc12 [Compound 7c, (E)-N-(2-(1H-indol-3-yl)ethyl)-N-(naphthalen-1-ylmethyl)-3-phenylprop-2-en-1-amine] | 39% | 86% | 8.95 µM
8 | COc1ccc2c(c1)C(c1ccc(Br)cc1)CN(C/C=C/c1ccc(Cl)cc1)CC2 (centres unmarked) [Compound 7kc, (E)-1-(4-bromophenyl)-3-(3-(4-chlorophenyl)allyl)-8-methoxy-2,3,4,5-tetrahydro-1H-benzo[d]azepine] | 32% | 32% | –
9 | FC(F)(F)c1ccc(/C=C/CN(CCc2c[nH]c3ccccc23)Cc2ccccc2)cc1 [Compound 7ah, (E)-N-(2-(1H-indol-3-yl)ethyl)-N-benzyl-3-(4-(trifluoromethyl)phenyl)prop-2-en-1-amine] | 24% | 96% | –
10 | C(=C\c1ccccc1)/CN(Cc1ccccc1)Cc1ccccc1 [Compound 7e, (E)-N,N-dibenzyl-3-phenylprop-2-en-1-amine] | -9% | 75% | –
11 | Cc1ccc(/C=C/CN(CCc2c[nH]c3ccccc23)Cc2ccccc2)cc1 [Compound 7ab, (E)-N-(2-(1H-indol-3-yl)ethyl)-N-benzyl-3-p-tolylprop-2-en-1-amine] | 20% | 91% | –
12 | COC(=O)CCCN(C/C=C/c1ccccc1)Cc1ccc(F)cc1 [Compound 7ga, methyl 4-(cinnamyl(4-fluorobenzyl)amino)butanoate] | 20% | 67% | –
13 | COc1ccc2c(c1)C(c1ccccc1)CN(C/C=C/c1ccc(C(F)(F)F)cc1)CC2 (centres unmarked) [Compound 7jf, (E)-8-methoxy-1-phenyl-3-(3-(4-(trifluoromethyl)phenyl)allyl)-2,3,4,5-tetrahydro-1H-benzo[d]azepine] | 17% | 88% | –
14 | Fc1ccc(C(c2ccc(F)cc2)N2CCN(C/C=C/c3ccccc3)CC2)cc1 [Compound 3, 1-(bis(4-fluorophenyl)methyl)-4-cinnamylpiperazine, reference compound] | 35% | 97% | –
15 | Cc1ccc(/C=C/CN2CCCN(S(=O)(=O)c3ccc(C)cc3)CC2)cc1 [Compound 7hb, (E)-1-(3-p-tolylallyl)-4-tosyl-1,4-diazepane] | -26% | 27% | –
16 | Cc1ccc(S(=O)(=O)N2CCCN(C/C=C/c3ccccc3)CC2)cc1 [Compound 7ha, 1-cinnamyl-4-tosyl-1,4-diazepane] | 6% | 73% | –
17 | CN(C/C=C/c1ccccc1)Cc1cccc2ccccc12 [Compound 1, (E)-N-methyl-N-(naphthalen-1-ylmethyl)-3-phenylprop-2-en-1-amine, reference compound] | 4% | 83% | –
18 | Cc1ccc(/C=C/CN(C)Cc2cccc3ccccc23)cc1 [Compound 7fa, (E)-N-methyl-N-(naphthalen-1-ylmethyl)-3-p-tolylprop-2-en-1-amine] | -26% | 95% | –
19 | COc1ccc2c(c1)C(c1ccccc1)CN(C/C=C/c1ccc(I)cc1)CC2 (centres unmarked) [Compound 7jc, (E)-3-(3-(4-iodophenyl)allyl)-8-methoxy-1-phenyl-2,3,4,5-tetrahydro-1H-benzo[d]azepine] | -3% | 51% | –
20 | Cc1cccc(/C=C/CN(CCc2c[nH]c3ccccc23)Cc2ccccc2)c1 [Compound 7ac, (E)-N-(2-(1H-indol-3-yl)ethyl)-N-benzyl-3-m-tolylprop-2-en-1-amine] | 18% | 93% | –
21 | COC(=O)CCCN(C/C=C/c1ccc(C)cc1)Cc1ccc(F)cc1 [Compound 7gb, (E)-methyl 4-((4-fluorobenzyl)(3-p-tolylallyl)amino)butanoate] | -3% | 64% | –
22 | CCOC(=O)c1ccc(/C=C/CN(C)Cc2cccc3ccccc23)cc1 [Compound 7fi, (E)-ethyl 4-(3-(methyl(naphthalen-1-ylmethyl)amino)prop-1-enyl)benzoate] | -40% | 85% | –
23 | COc1ccc(CN(C/C=C/c2ccccc2)CCc2c[nH]c3ccccc23)cc1 [Compound 7ba, (E)-N-(2-(1H-indol-3-yl)ethyl)-N-(4-methoxybenzyl)-3-phenylprop-2-en-1-amine] | 34% | 98% | –
24 | Ic1ccc(/C=C/CN(CCc2c[nH]c3ccccc23)Cc2ccccc2)cc1 [Compound 7ad, (E)-N-(2-(1H-indol-3-yl)ethyl)-N-benzyl-3-(4-iodophenyl)prop-2-en-1-amine] | 59% | 93% | 10.2 µM
25 | Cc1ccc(S(=O)(=O)N2CCCN(C/C=C/c3ccc(Cl)cc3)CC2)cc1 [Compound 7hc, (E)-1-(3-(4-chlorophenyl)allyl)-4-tosyl-1,4-diazepane] | -5.5% | 85% | –
26 | COc1ccc(/C=C/CN(C)Cc2cccc3ccccc23)cc1 [Compound 7fj, (E)-3-(4-methoxyphenyl)-N-methyl-N-(naphthalen-1-ylmethyl)prop-2-en-1-amine] | -14% | 82% | –
27 | CCOC(=O)c1ccc(/C=C/CN(CCc2c[nH]c3ccccc23)Cc2ccccc2)cc1 [Compound 7ai, (E)-ethyl 4-(3-((2-(1H-indol-3-yl)ethyl)(benzyl)amino)prop-1-enyl)benzoate] | 36% | 99% | –
28 | C(=C\c1ccccc1)/CN(CCc1c[nH]c2ccccc12)Cc1ccccc1 [Compound 7aa, (E)-N-(2-(1H-indol-3-yl)ethyl)-N-benzyl-3-phenylprop-2-en-1-amine] | 41% | 92% | 9.92 µM
29 | CN(C/C=C/c1ccc(F)cc1)Cc1cccc2ccccc12 [Compound 7fe, (E)-3-(4-fluorophenyl)-N-methyl-N-(naphthalen-1-ylmethyl)prop-2-en-1-amine] | 4% | 85% | –
30 | CN(C/C=C/c1ccc(Cl)cc1)Cc1cccc2ccccc12 [Compound 7ff, (E)-3-(4-chlorophenyl)-N-methyl-N-(naphthalen-1-ylmethyl)prop-2-en-1-amine] | 37% | 91% | –

Source: patent US10100001B2, “Adenylyl cyclase inhibitors for neuropathic and inflammatory pain” (Purdue Research Foundation, priority 2015, dated 2018)
